Reference: PubChem BioAssay (NCI)
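Assay format: 96-well plates, 48-hour exposure. GI50 marks 50% less growth. The concentration for full growth arrest is given as TGI.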

Experiments:
Test in all cases: NCI tumour cell line growth inhibition, 48 h
[1] = test system: LOX IMVI melanoma
[2] = test system: MDA-MB-231 breast
[3] = test system: MDA-MB-435
[4] = test system: SF-268 CNS
[5] = test system: SK-OV-3 ovarian
[6] = test system: SN12C renal
[7] = test system: SNB-75 CNS
[8] = test system: SW-620 colon
[9] = test system: UACC-62 melanoma
[10] = test system: UO-31 renal

Structure (SMILES) | TGI [1] | TGI [2] | TGI [3] | TGI [4] | TGI [5] | TGI [6] | TGI [7] | TGI [8] | TGI [9] | TGI [10] | GI50 [1] | GI50 [2] | GI50 [3] | GI50 [4] | GI50 [5] | GI50 [6] | GI50 [7] | GI50 [8] | GI50 [9] | GI50 [10]
Cc1c2c(n(CCc3ccc(Cl)cc3)c1C)NN=C(C#N)S2(=O)=O | > 100 µM | > 100 µM | > 100 µM | > 100 µM | > 100 µM | > 100 µM | > 100 µM | > 100 µM | > 100 µM | > 100 µM | – | – | – | – | – | – | – | – | – | –
O=c1c2ccccc2nc2[nH][nH]c(=S)n12 | > 100 µM | > 100 µM | > 100 µM | > 100 µM | > 100 µM | > 100 µM | > 100 µM | > 100 µM | > 100 µM | > 100 µM | – | – | – | – | – | – | – | – | – | –
CC1CC[C@@]2(OC1)OC1C[C@H]3[C@@H]4CC[C@H]5CC(OC6OC(CO)C(OC7OC(CO)C(O)C(O)C7OC7OC(CO)C(O)C(O)C7O)C(O)C6O)CCC5(C)[C@H]4CCC3(C)C1[C@@H]2C (some centres not stated) | 5.85 µM | 3.04 µM | 9.7 µM | 8.77 µM | 6.04 µM | 7.42 µM | 4.81 µM | 1.94 µM | 16.5 µM | 1.94 µM | – | – | – | – | – | – | – | – | – | –
COc1cc2c(cc1-c1c(C)noc1C)cc(C)c(=O)n2Cc1ccccn1 | 10.8 µM | > 100 µM | 4.33 µM | > 100 µM | 7.82 µM | > 100 µM | 0.456 µM | > 100 µM | 15 µM | > 100 µM | 0.884 µM | 0.809 µM | 1.25 µM | 4.22 µM | 0.554 µM | 2.91 µM | 0.0306 µM | 2.59 µM | 0.407 µM | 0.376 µM
O=P(c1ccccc1)(c1ccccc1)N1O[C@@H](c2ccccc2)C=C[C@H]1c1ccccc1 | 24.1 µM | 21.1 µM | 18.7 µM | 26.2 µM | 33.4 µM | 17.5 µM | 26.5 µM | 31.8 µM | 19.5 µM | 17.3 µM | – | – | – | – | – | – | – | – | – | –
CSc1c(C#N)c(N)n2c1C(=O)N(c1ccccc1)C2=S | > 100 µM | 45.6 µM | > 100 µM | > 100 µM | > 100 µM | > 100 µM | > 100 µM | > 100 µM | > 100 µM | > 100 µM | – | – | – | – | – | – | – | – | – | –
CN(C)CCCN1C(=S)N(CCCN(C)C)c2c3cc(O)ccc3nc3c([N+](=O)[O-])ccc1c23 | 5.9 µM | 25.5 µM | 15.3 µM | 7 µM | 17.2 µM | 36.1 µM | 16.9 µM | > 42 µM | 19.6 µM | 18.7 µM | – | – | – | – | – | – | – | – | – | –
COc1nc(C#CCC(C)O)nc(OC)n1 (configuration not stated) | 40.6 µM | 52 µM | 54.6 µM | 69.6 µM | > 100 µM | 42.5 µM | 64 µM | 47.7 µM | 37.3 µM | 37.8 µM | – | – | – | – | – | – | – | – | – | –
CC12CC(=O)C3C(C(=O)C1)C32C (configuration not stated) | > 100 µM | > 100 µM | > 100 µM | > 100 µM | > 100 µM | > 100 µM | > 100 µM | > 100 µM | > 100 µM | > 100 µM | – | – | – | – | – | – | – | – | – | –
O=C(/C=C/c1ccsc1)c1ccsc1 | 35.2 µM | 42.4 µM | 42.4 µM | > 100 µM | > 100 µM | 40.4 µM | > 100 µM | 60.1 µM | 89.9 µM | 28.7 µM | – | – | – | – | – | – | – | – | – | –
O=C1c2cc3c(cc2CC1Br)CCC3 (configuration not stated) | 2 µM | 13.9 µM | 4.23 µM | 28.5 µM | 15.9 µM | 3.22 µM | 7.44 µM | 3 µM | 11.7 µM | 22.4 µM | – | – | – | – | – | – | – | – | – | –
CC1(C)N=C(C(N)=O)c2ncn(CCCO)c2N1 | > 100 µM | > 100 µM | > 100 µM | > 100 µM | > 100 µM | > 100 µM | > 100 µM | > 100 µM | > 100 µM | – | – | – | – | – | – | – | – | – | – | –
CCCn1c(CN(Cc2nc3ccccc3n2CCC)Cc2nc3ccccc3n2CCC)nc2ccccc21 | 18.9 µM | 7.86 µM | 15.3 µM | 27.9 µM | > 100 µM | 6.81 µM | 75.1 µM | > 100 µM | 18.3 µM | 34.3 µM | – | – | – | – | – | – | – | – | – | –
C1=CC2=CC=CC3c4nc5ccc6ccccc6c5nc4C(=C1)C23 (configuration not stated) | > 100 µM | > 100 µM | > 100 µM | > 100 µM | > 100 µM | > 100 µM | > 100 µM | > 100 µM | > 100 µM | > 100 µM | – | – | – | – | – | – | – | – | – | –
CO[C@]12CC(=O)C3(C(C[C@H]4CC5CC=C6C[C@@H](OC(C)=O)CC[C@]6(OC(C)=O)C5C[C@@]43C)C1)C1C[C@H]3[C@@H]4CC=C5C[C@@H](OC(C)=O)CC[C@]5(OC(C)=O)[C@H]4CC[C@]3(C)C12 (some centres not stated) | 53.4 µM | 30.2 µM | > 100 µM | > 100 µM | > 100 µM | 29.8 µM | 94.2 µM | > 100 µM | 79 µM | 52.6 µM | – | – | – | – | – | – | – | – | – | –
CN(C)Cc1cc(C(=O)/C=C/c2ccc(O)cc2)cc(CN(C)C)c1O | > 100 µM | 79 µM | > 100 µM | > 100 µM | – | 60.1 µM | 86.3 µM | > 100 µM | > 100 µM | > 100 µM | – | – | – | – | – | – | – | – | – | –
O=C1CN2C(c3ccccc3)=NN(c3ccc([N+](=O)[O-])cc3)C2(c2ccccc2)c2cc(Cl)ccc2N1CC1CC1 (configuration not stated) | > 100 µM | > 100 µM | > 100 µM | > 100 µM | > 100 µM | > 100 µM | > 100 µM | > 100 µM | > 100 µM | > 100 µM | – | – | – | – | – | – | – | – | – | –
CN(C)c1nc(=NCc2ccccc2)ss1 | > 10 µM | > 10 µM | > 10 µM | > 10 µM | > 10 µM | > 10 µM | > 10 µM | > 10 µM | > 10 µM | > 10 µM | – | – | – | – | – | – | – | – | – | –
O=C(NCCCN(CCCCN(CCCNC(=O)C(F)(F)F)Cc1ccccc1)Cc1ccccc1)C(F)(F)F | 21.3 µM | 34.1 µM | 33.9 µM | 25 µM | 36.1 µM | 36.5 µM | 27.9 µM | 34.2 µM | 30.6 µM | 17.4 µM | – | – | – | – | – | – | – | – | – | –
CCOc1cc(C2CC(c3ccc(NS(=O)(=O)c4cc([N+](=O)[O-])ccc4C)cc3)=NN2C(=O)c2ccccc2)ccc1O (configuration not stated) | > 100 µM | 48.1 µM | > 100 µM | > 100 µM | 54.5 µM | 58.9 µM | 36.6 µM | > 100 µM | – | > 100 µM | – | – | – | – | – | – | – | – | – | –
